For eleven molecules, IC50 results are on record in patent publication US10172814B2, “Substituted pyridyl-cycloalkyl-carboxylic acids, compositions containing them and medical uses thereof” (BAYER PHARMA AKTIENGESELLSCHAFT, priority 2014, dated 2019).

The target of the experiment is human PTGES (Homo sapiens (Human), UniProt O14684). The experiment in a line: Human PTGES biochemical enzyme inhibition assay (conversion of PGH2 to PGE2, TR-FRET). Particulars: Enzymatic conversion of PGH2 to PGE2; read-out: Human PTGES IC50. In a few lines: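 FLAG-tagged human PTGES from Hi-5 insect cells preincubated 15–20 min with compound in pH 7.2 phosphate buffer with 2.5 mM reduced glutathione; reaction started with 8 nM PGH2 final, stopped with SnCl2/KF.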
Background: Time-resolved FRET reads energy transfer from a long-lived donor to a nearby acceptor.

Chain of human PTGES (O14684 whole entry): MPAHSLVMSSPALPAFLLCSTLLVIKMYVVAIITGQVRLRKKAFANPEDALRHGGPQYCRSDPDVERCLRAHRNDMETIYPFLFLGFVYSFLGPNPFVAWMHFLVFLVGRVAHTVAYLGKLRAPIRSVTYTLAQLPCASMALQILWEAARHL

In general, IC50 refers to the point on the concentration scale where inhibition reaches its midpoint. As for `Cc1ncc(-c2ccc(C(C(=O)Nc3cccc(CCC(=O)O)c3C)C3CCC3)cc2)cc1Cl` (racemic) [Example 61, (R/S) 3-[3-({[4-(5-chloro-6-methylpyridin-3-yl)phenyl](cyclobutyl)acetyl}amino)-2-methylphenyl]propanoic acid], the IC50 worked out at 32.2 nM.

As for `CCOc1cncc(-c2ccc(C(C(=O)Nc3cccc(C(CC(=O)O)C4CC4)c3C)C3CCCC3)cc2)c1` (mixture of isomers) [Example 111, (3R/S)-3-[3-({(2R/S)-2-cyclopentyl-2-[4-(5-ethoxypyridin-3-yl)phenyl]acetyl}amino)-2-methylphenyl]-3-cyclopropylpropanoic acid], the IC50 is 53.9 nM.

In the case of `Cc1c(NC(=O)C(c2ccc(-c3cncc(Cl)c3)c(F)c2)C2CCCC2)cccc1C(C)CC(=O)O` (single isomer, unassigned; stereoisomer 2) [Example 127, 3-[3-({[4-(5-Chloropyridin-3-yl)-3-fluorophenyl](cyclopentyl)acetyl}amino)-2-methylphenyl]butanoic acid, Stereoisomer 2], the IC50 turned out to be 31.5 nM.

`Cc1c(NC(=O)[C@@H](c2ccc(-c3cncc(Cl)c3)cc2)C2CCCC2)cccc1C(O)CC(=O)O` (stereo partly drawn) [Example 193, 3-[3-({(2R)-2-[4-(5-chloropyridin-3-yl)phenyl]-2-cyclopentylacetyl}amino)-2-methylphenyl]-3-hydroxypropanoic acid]: the IC50 turned out to be 232 nM.

Consider `Cc1cncc(-c2ccc(C(C(=O)Nc3cccc(C(CC(=O)O)C4CC4)c3C)C3CCCC3)cc2)c1` (mixture of isomers) [Example 113, (3R/S)-3-[3-({(2R/S)-2-cyclopentyl-2-[4-(5-methylpyridin-3-yl)phenyl]acetyl}amino)-2-methylphenyl]-3-cyclopropylpropanoic acid], for which the IC50 was 140 nM.

In the case of `CCc1cncc(-c2ccc(C(C(=O)Nc3cccc(CCC(=O)O)c3C)C3CCCC3)cc2)c1` (racemic) [Example 13, (R/S) 3-[3-({Cyclopentyl[4-(5-ethylpyridin-3-yl)phenyl]acetyl}amino)-2-methylphenyl]propanoic acid], the half-maximal inhibitory concentration (IC50) amounted to 78.2 nM.

As to `Cc1c(CCC(=O)O)cccc1NC(=O)C(c1ccc(-c2cncc(CC(F)(F)F)c2)c(F)c1)C1CCC1` (single isomer, unassigned) [Example 205, 3-{3-[(cyclobutyl{3-fluoro-4-[5-(2,2,2-trifluoroethyl)pyridin-3-yl]phenyl}acetyl)amino]-2-methylphenyl}propanoic acid, Single Enantiomer], the 50% inhibitory concentration (IC50) was determined as 66.4 nM.

Turning to `Cc1cncc(-c2ccc(C(C(=O)Nc3cccc(CCC(=O)O)c3C)C3CCCC3)cc2)c1` (racemic) [Example 21, (R/S) 3-[3-({Cyclopentyl[4-(5-methylpyridin-3-yl)-phenyl]acetyl}amino)-2-methylphenyl]propanoic acid], the half-maximal inhibitory concentration (IC50) is 161 nM.

In the case of `Cc1c(NC(=O)C(c2ccc(-c3cncc(Cl)c3)c(F)c2)C2CCCC2)cccc1C(C)CC(=O)O` (single isomer, unassigned; stereoisomer 4) [Example 129, 3-[3-({[4-(5-Chloropyridin-3-yl)-3-fluorophenyl](cyclopentyl)acetyl}amino)-2-methylphenyl]butanoic acid, Stereoisomer 4], the IC50 amounted to 5.6 nM.

For the molecule `Cc1ncc(-c2ccc(C(C(=O)Nc3cccc(CC(C)C(=O)O)c3C)C3CCCC3)cc2)cc1F` (centres unmarked) [Example 82, (2R/2S)-3-[3-({(2R/2S)-2-Cyclopentyl-2-[4-(5-fluoro-6-methylpyridin-3-yl)phenyl]acetyl}amino)-2-methylphenyl]-2-methylpropanoic acid], the IC50 amounted to 90.6 nM.

With `Cc1c(NC(=O)C(c2ccc(-c3cncc(C(F)(F)F)c3)c(F)c2)C2CCCC2)cccc1N(C)CC(=O)O` (single isomer, unassigned; (-)) [Example 188, (−) N-{3-[(cyclopentyl{3-fluoro-4-[5-(trifluoromethyl)pyridin-3-yl]phenyl}acetyl)amino]-2-methylphenyl}-N-methylglycine, Single Enantiomer], the half-maximal inhibitory concentration (IC50) was determined as 24.2 nM.
